Laboratory results published in patent US20150052630A1, “Methods and Compositions for Obtaining Useful Plant Traits” (Board of Regents of the University of Nebraska, priority 2013, published 2015).
Entries after “also recorded” stand apart in the source; their conditions may differ.

Test system: Arabidopsis seedlings (wild type Col-0, epi-line, Col-0/msh1 graft progeny)
Test: 5-Azacytidine treatment and root length assay (methylation inhibition assay)
Format: in vivo
Conditions: 50 μM 5-azacytidine, half-strength MS plates, seedlings transferred 3 days post-germination, root lengths measured at ten days
Description: FIG. 27A-C. a, Distribution of msh1 SNPs and indels versus Col-0 across the genome. Each dot represents the number of SNPs and indels found in a window of 50 kbp. Note that the Y-axis has been synchronized with the maximum number found on chr4 to enable comparisons between chromosomes. The region 7,800,000-9,850,0000 bp on chr4, a likely introgressed segment from Ler, contains 8582 of the total 12,771 SNPs and indels. […] Paired-end genome-wide sequencing, alignment and de novo partial assembly of the chm1-1 genome produced 14,416 contigs (n50=40,761 bp) containing 118.5 Mbp; mapping these contigs against Col-0 covers 72 Mbp. Alignment of paired-end reads to the Col-0 public reference sequence produced 95% alignment and identified 12,771 SNPs and indels, with the one 2-Mbp interval, on chromosome 4, accounting for 8,582 and the second on Chromosome 3 accounting for 2200. […]
Treatment with azacytidine can be used to nullify methylation effects^42. […] Ten days after moving to growth chamber, plates were scanned and root lengths were measured using ImageJ. […]

Nc1ncn([C@@H]2O[C@H](CO)[C@@H](O)[C@H]2O)c(=O)n1 [5-azacytidine]
effect on enhanced epi-line root length: restoration of epi-F3 seedlings to wild type growth levels; also recorded: abolished
